Values of other authors as cited in publication PMC2602858 (Cancer epidemiology, biomarkers & prevention : a …, 2008).

Tests used:
[1] = tested on: urinary 2-hydroxyestrone: 16α-hydroxyestrone ratio; conditions: four weeks
[2] = humans, plasma
[3] = tested on: women; conditions: I3C 200 and 400 mg twice daily for 4 weeks
[4] = tested on: CYP1A2; conditions: I3C 400 mg twice daily, four weeks

effect on CYP1A2 [4]: marked induction
Compound: OCc1c[nH]c2ccccc12 [I3C, indole-3-carbinol]
change of estrone hydroxylation ratio ([1]; I3C 200 mg twice daily): change in the estrone hydroxylation ratio was obtained
change of urinary 2-hydroxyestrone: 16α-hydroxyestrone ratio ([1]; I3C 400 mg twice daily): doubling
circulating products detected after oral I3C [2]: the only detectable circulating product was DIM
adverse effects [3]: no adverse effects were reported or observed
